Laboratory results from the supplement of paper PMC10307832.

Key:
Experiment in all cases: relative viability (nuclei count vs DMSO), 5 days (fraction); higher = more cells survive
NCI-H441 = system: NCI-H441
Method in brief: (§1)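 Relative viability equals treated-well nuclei counts divided by vehicle-well nuclei counts. Counts came from 4× images of lung cancer cell lines grown in 1536-well plates for 5 days after pin-tool dosing on the day after seeding. Dosing used one drug alone or a fixed anchor-drug dose plus five library-drug doses (not always all listed) in √10 steps, and values are medians of duplicate plates.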

NCI-H1975 = system: NCI-H1975
Method in brief: as §1

HCC-15 = system: HCC-15
Method in brief: as §1

SK-MES-1 = system: SK-MES-1
Method in brief: as §1

NCI-H1792 = system: NCI-H1792
Method in brief: as §1

A-427 = system: A-427
Method in brief: as §1

HCC-44 = system: HCC-44
Method in brief: as §1

NCI-H838 = system: NCI-H838
Method in brief: as §1

NCI-H1650 = system: NCI-H1650
Method in brief: as §1

EKVX = system: EKVX
Method in brief: as §1

HCC-827 = system: HCC-827
Method in brief: as §1

HARA = system: HARA
Method in brief: as §1

COR-L23 = system: COR-L23
Method in brief: as §1

201T = system: 201T
Method in brief: as §1

NCI-H596 = system: NCI-H596
Method in brief: as §1

NCI-H23 = system: NCI-H23
Method in brief: as §1

NCI-H1437 = system: NCI-H1437
Method in brief: as §1

BEN = system: BEN
Method in brief: as §1

COc1cc2nccc(Oc3ccc(NC(=O)Nc4cc(C)on4)c(Cl)c3)c2cc1OC [Tivozanib] + CC1(C)CCC(c2ccc(Cl)cc2)=C(CN2CCN(c3ccc(C(=O)NS(=O)(=O)c4ccc(N[C@H](CCN5CCOCC5)CSc5ccccc5)c(S(=O)(=O)C(F)(F)F)c4)cc3)CC2)C1 [Navitoclax] (partner 0.5 µM)
relative viability (NCI-H441; first compound 0.005 µM): 0.473
relative viability (NCI-H441; first compound 0.01581 µM): 0.424
relative viability (NCI-H441; first compound 0.05 µM): 0.747
relative viability (NCI-H441; first compound 0.1581 µM): 0.566
relative viability (NCI-H441; first compound 0.5 µM): 0.545
relative viability (NCI-H1975; first compound 0.005 µM): 1.1
relative viability (NCI-H1975; first compound 0.01581 µM): 1.19
relative viability (NCI-H1975; first compound 0.05 µM): 1.09
relative viability (NCI-H1975; first compound 0.1581 µM): 1.06
relative viability (NCI-H1975; first compound 0.5 µM): 0.884
relative viability (HCC-15; first compound 0.005 µM): 0.719
relative viability (HCC-15; first compound 0.01581 µM): 0.676
relative viability (HCC-15; first compound 0.05 µM): 0.67
relative viability (HCC-15; first compound 0.1581 µM): 0.742
relative viability (HCC-15; first compound 0.5 µM): 0.728
relative viability (SK-MES-1; first compound 0.005 µM): 1.25
relative viability (SK-MES-1; first compound 0.01581 µM): 1.16
relative viability (SK-MES-1; first compound 0.05 µM): 1.4
relative viability (SK-MES-1; first compound 0.1581 µM): 1.17
relative viability (SK-MES-1; first compound 0.5 µM): 1.18
relative viability (NCI-H1792; first compound 0.005 µM): 0.657
relative viability (NCI-H1792; first compound 0.01581 µM): 0.638
relative viability (NCI-H1792; first compound 0.05 µM): 0.657
relative viability (NCI-H1792; first compound 0.1581 µM): 0.505
relative viability (NCI-H1792; first compound 0.5 µM): 0.849
relative viability (A-427; first compound 0.005 µM): 0.924
relative viability (A-427; first compound 0.01581 µM): 0.989
relative viability (A-427; first compound 0.05 µM): 0.988
relative viability (A-427; first compound 0.1581 µM): 0.737
relative viability (A-427; first compound 0.5 µM): 1.03
relative viability (HCC-44; first compound 0.005 µM): 1.01
relative viability (HCC-44; first compound 0.01581 µM): 0.986
relative viability (HCC-44; first compound 0.05 µM): 1.01
relative viability (HCC-44; first compound 0.1581 µM): 0.962
relative viability (HCC-44; first compound 0.5 µM): 0.944
relative viability (NCI-H838; first compound 0.005 µM): 1.09
relative viability (NCI-H838; first compound 0.01581 µM): 1.16
relative viability (NCI-H838; first compound 0.05 µM): 1.2
relative viability (NCI-H838; first compound 0.5 µM): 1.12
relative viability (NCI-H1650; first compound 0.005 µM): 1.1
relative viability (NCI-H1650; first compound 0.01581 µM): 1.2
relative viability (NCI-H1650; first compound 0.05 µM): 1.15
relative viability (NCI-H1650; first compound 0.1581 µM): 1.28
relative viability (NCI-H1650; first compound 0.5 µM): 1.53
relative viability (EKVX; first compound 0.005 µM): 0.869
relative viability (EKVX; first compound 0.01581 µM): 0.772
relative viability (EKVX; first compound 0.05 µM): 0.982
relative viability (EKVX; first compound 0.1581 µM): 0.793
relative viability (EKVX; first compound 0.5 µM): 0.922
relative viability (HCC-827; first compound 0.005 µM): 1.01
relative viability (HCC-827; first compound 0.01581 µM): 1.03
relative viability (HCC-827; first compound 0.05 µM): 1.02
relative viability (HCC-827; first compound 0.1581 µM): 1.05
relative viability (HCC-827; first compound 0.5 µM): 1.03
relative viability (HARA; first compound 0.005 µM): 1.11
relative viability (HARA; first compound 0.01581 µM): 1.04
relative viability (HARA; first compound 0.05 µM): 1.19
relative viability (HARA; first compound 0.1581 µM): 1.19
relative viability (HARA; first compound 0.5 µM): 1.15
relative viability (COR-L23; first compound 0.005 µM): 0.955
relative viability (COR-L23; first compound 0.01581 µM): 0.998
relative viability (COR-L23; first compound 0.05 µM): 1.04
relative viability (COR-L23; first compound 0.1581 µM): 0.935
relative viability (COR-L23; first compound 0.5 µM): 0.817
relative viability (201T; first compound 0.005 µM): 1.21
relative viability (201T; first compound 0.01581 µM): 1.17
relative viability (201T; first compound 0.05 µM): 1.22
relative viability (201T; first compound 0.1581 µM): 1.17
relative viability (201T; first compound 0.5 µM): 1.18
relative viability (NCI-H596; first compound 0.005 µM): 0.94
relative viability (NCI-H596; first compound 0.01581 µM): 1.07
relative viability (NCI-H596; first compound 0.05 µM): 0.936
relative viability (NCI-H596; first compound 0.1581 µM): 0.911
relative viability (NCI-H596; first compound 0.5 µM): 0.922
relative viability (NCI-H23; first compound 0.005 µM): 0.753
relative viability (NCI-H23; first compound 0.01581 µM): 0.718
relative viability (NCI-H23; first compound 0.05 µM): 0.92
relative viability (NCI-H23; first compound 0.1581 µM): 0.652
relative viability (NCI-H23; first compound 0.5 µM): 0.938
relative viability (NCI-H1437; first compound 0.005 µM): 1.06
relative viability (NCI-H1437; first compound 0.01581 µM): 1.12
relative viability (NCI-H1437; first compound 0.05 µM): 1.07
relative viability (NCI-H1437; first compound 0.1581 µM): 1.02
relative viability (NCI-H1437; first compound 0.5 µM): 1.02
relative viability (BEN; first compound 0.005 µM): 0.0616
relative viability (BEN; first compound 0.01581 µM): 0.0524
relative viability (BEN; first compound 0.05 µM): 0.0639
relative viability (BEN; first compound 0.5 µM): 0.0625
